{
  "source": "PubChem BioAssay (NCI)",
  "experiment_in_all_cases": "NCI tumour cell line growth inhibition, 48 h",
  "key": {"HT29 colon": {"test_system": "HT29 colon"}, "RPMI-8226 leukemia": {"test_system": "RPMI-8226 leukemia"}, "NCI-H23 lung": {"test_system": "NCI-H23 lung"}, "IGROV1 ovarian": {"test_system": "IGROV1 ovarian"}, "MDA-MB-231 breast": {"test_system": "MDA-MB-231 breast"}, "MOLT-4 leukemia": {"test_system": "MOLT-4 leukemia"}, "MDA-MB-435": {"test_system": "MDA-MB-435"}, "K-562 leukemia": {"test_system": "K-562 leukemia"}, "OVCAR-8 ovarian": {"test_system": "OVCAR-8 ovarian"}, "HOP-92 NSCLC": {"test_system": "HOP-92 NSCLC"}, "ACHN renal": {"test_system": "ACHN renal"}, "HOP-62 NSCLC": {"test_system": "HOP-62 NSCLC"}, "SF-539 CNS": {"test_system": "SF-539 CNS"}, "OVCAR-5 ovarian": {"test_system": "OVCAR-5 ovarian"}, "M14 melanoma": {"test_system": "M14 melanoma"}, "SW-620 colon": {"test_system": "SW-620 colon"}, "SR leukemia": {"test_system": "SR leukemia"}, "KM12 colon": {"test_system": "KM12 colon"}, "HL-60(TB) leukemia": {"test_system": "HL-60(TB) leukemia"}, "UO-31 renal": {"test_system": "UO-31 renal"}, "UACC-257 melanoma": {"test_system": "UACC-257 melanoma"}, "786-0 renal": {"test_system": "786-0 renal"}, "OVCAR-3 ovarian": {"test_system": "OVCAR-3 ovarian"}, "SN12C renal": {"test_system": "SN12C renal"}, "HCT-15 colon": {"test_system": "HCT-15 colon"}, "SF-295 CNS": {"test_system": "SF-295 CNS"}, "A549 NSCLC": {"test_system": "A549 NSCLC"}, "NCI-H226 lung": {"test_system": "NCI-H226 lung"}, "NCI-H522 lung": {"test_system": "NCI-H522 lung"}, "SNB-19 CNS": {"test_system": "SNB-19 CNS"}, "PC-3 prostate": {"test_system": "PC-3 prostate"}, "DU-145 prostate": {"test_system": "DU-145 prostate"}, "SK-MEL-5 melanoma": {"test_system": "SK-MEL-5 melanoma"}, "MALME-3M melanoma": {"test_system": "MALME-3M melanoma"}, "U251 CNS": {"test_system": "U251 CNS"}, "MCF7 breast": {"test_system": "MCF7 breast"}, "SF-268 CNS": {"test_system": "SF-268 CNS"}, "OVCAR-4 ovarian": {"test_system": "OVCAR-4 ovarian"}, "HCC-2998 colon": {"test_system": "HCC-2998 colon"}, "SNB-75 CNS": {"test_system": "SNB-75 CNS"}, "CAKI-1 renal": {"test_system": "CAKI-1 renal"}, "T-47D breast": {"test_system": "T-47D breast"}, "EKVX NSCLC": {"test_system": "EKVX NSCLC"}, "NCI-H460 lung": {"test_system": "NCI-H460 lung"}},
  "note": "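Results reflect a 48-hour exposure of cells in 96-well plates to compound at five concentrations. Here, GI50 denotes the concentration required for 50% inhibition of growth. Definition used: TGI = concentration required for complete inhibition of growth.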",
  "data": [
    {"smiles": "Cc1cc(N=C2NC(=O)S/C2=C\\c2ccc(F)cc2)n[nH]1", "values": [
      {"measurement": "GI50", "setting": "HT29 colon", "value": 4.09, "unit": "µM"},
      {"measurement": "TGI", "setting": "HT29 colon", "value": "> 100", "unit": "µM"},
      {"measurement": "GI50", "setting": "RPMI-8226 leukemia", "value": 2.27, "unit": "µM"},
      {"measurement": "TGI", "setting": "RPMI-8226 leukemia", "value": 6.34, "unit": "µM"},
      {"measurement": "GI50", "setting": "NCI-H23 lung", "value": 3.63, "unit": "µM"},
      {"measurement": "TGI", "setting": "NCI-H23 lung", "value": "> 100", "unit": "µM"},
      {"measurement": "GI50", "setting": "IGROV1 ovarian", "value": 2.59, "unit": "µM"},
      {"measurement": "TGI", "setting": "IGROV1 ovarian", "value": "> 100", "unit": "µM"},
      {"measurement": "GI50", "setting": "MDA-MB-231 breast", "value": 2.95, "unit": "µM"},
      {"measurement": "TGI", "setting": "MDA-MB-231 breast", "value": "> 100", "unit": "µM"},
      {"measurement": "GI50", "setting": "MOLT-4 leukemia", "value": 2.93, "unit": "µM"},
      {"measurement": "TGI", "setting": "MOLT-4 leukemia", "value": "> 100", "unit": "µM"},
      {"measurement": "GI50", "setting": "MDA-MB-435", "value": 3, "unit": "µM"},
      {"measurement": "TGI", "setting": "MDA-MB-435", "value": "> 100", "unit": "µM"},
      {"measurement": "GI50", "setting": "K-562 leukemia", "value": 3.32, "unit": "µM"},
      {"measurement": "TGI", "setting": "K-562 leukemia", "value": "> 100", "unit": "µM"},
      {"measurement": "GI50", "setting": "OVCAR-8 ovarian", "value": 2.76, "unit": "µM"},
      {"measurement": "TGI", "setting": "OVCAR-8 ovarian", "value": "> 100", "unit": "µM"},
      {"measurement": "GI50", "setting": "HOP-92 NSCLC", "value": 2.62, "unit": "µM"},
      {"measurement": "TGI", "setting": "HOP-92 NSCLC", "value": "> 100", "unit": "µM"},
      {"measurement": "GI50", "setting": "ACHN renal", "value": 3.36, "unit": "µM"},
      {"measurement": "TGI", "setting": "ACHN renal", "value": "> 100", "unit": "µM"},
      {"measurement": "GI50", "setting": "HOP-62 NSCLC", "value": 2.59, "unit": "µM"},
      {"measurement": "TGI", "setting": "HOP-62 NSCLC", "value": "> 100", "unit": "µM"},
      {"measurement": "GI50", "setting": "SF-539 CNS", "value": 2.84, "unit": "µM"},
      {"measurement": "TGI", "setting": "SF-539 CNS", "value": "> 100", "unit": "µM"},
      {"measurement": "GI50", "setting": "OVCAR-5 ovarian", "value": 3.65, "unit": "µM"},
      {"measurement": "TGI", "setting": "OVCAR-5 ovarian", "value": "> 100", "unit": "µM"},
      {"measurement": "GI50", "setting": "M14 melanoma", "value": 2.63, "unit": "µM"},
      {"measurement": "TGI", "setting": "M14 melanoma", "value": "> 100", "unit": "µM"},
      {"measurement": "GI50", "setting": "SW-620 colon", "value": 3.92, "unit": "µM"},
      {"measurement": "TGI", "setting": "SW-620 colon", "value": "> 100", "unit": "µM"},
      {"measurement": "GI50", "setting": "SR leukemia", "value": 2.35, "unit": "µM"},
      {"measurement": "TGI", "setting": "SR leukemia", "value": "> 100", "unit": "µM"},
      {"measurement": "GI50", "setting": "KM12 colon", "value": 4.13, "unit": "µM"},
      {"measurement": "TGI", "setting": "KM12 colon", "value": "> 100", "unit": "µM"},
      {"measurement": "GI50", "setting": "HL-60(TB) leukemia", "value": 3.3, "unit": "µM"},
      {"measurement": "TGI", "setting": "HL-60(TB) leukemia", "value": "> 100", "unit": "µM"},
      {"measurement": "GI50", "setting": "UO-31 renal", "value": 2.33, "unit": "µM"},
      {"measurement": "TGI", "setting": "UO-31 renal", "value": "> 100", "unit": "µM"},
      {"measurement": "GI50", "setting": "UACC-257 melanoma", "value": 2.82, "unit": "µM"},
      {"measurement": "TGI", "setting": "UACC-257 melanoma", "value": "> 100", "unit": "µM"},
      {"measurement": "GI50", "setting": "786-0 renal", "value": 3.01, "unit": "µM"},
      {"measurement": "TGI", "setting": "786-0 renal", "value": "> 100", "unit": "µM"},
      {"measurement": "GI50", "setting": "OVCAR-3 ovarian", "value": 3.13, "unit": "µM"},
      {"measurement": "TGI", "setting": "OVCAR-3 ovarian", "value": "> 100", "unit": "µM"},
      {"measurement": "GI50", "setting": "SN12C renal", "value": 3.81, "unit": "µM"},
      {"measurement": "TGI", "setting": "SN12C renal", "value": "> 100", "unit": "µM"},
      {"measurement": "GI50", "setting": "HCT-15 colon", "value": 2.47, "unit": "µM"},
      {"measurement": "TGI", "setting": "HCT-15 colon", "value": "> 100", "unit": "µM"},
      {"measurement": "GI50", "setting": "SF-295 CNS", "value": 2.79, "unit": "µM"},
      {"measurement": "TGI", "setting": "SF-295 CNS", "value": "> 100", "unit": "µM"},
      {"measurement": "GI50", "setting": "A549 NSCLC", "value": 3.07, "unit": "µM"},
      {"measurement": "TGI", "setting": "A549 NSCLC", "value": "> 100", "unit": "µM"},
      {"measurement": "GI50", "setting": "NCI-H226 lung", "value": 2.9, "unit": "µM"},
      {"measurement": "TGI", "setting": "NCI-H226 lung", "value": "> 100", "unit": "µM"},
      {"measurement": "GI50", "setting": "NCI-H522 lung", "value": 2.57, "unit": "µM"},
      {"measurement": "TGI", "setting": "NCI-H522 lung", "value": "> 100", "unit": "µM"},
      {"measurement": "GI50", "setting": "SNB-19 CNS", "value": 3.2, "unit": "µM"},
      {"measurement": "TGI", "setting": "SNB-19 CNS", "value": "> 100", "unit": "µM"},
      {"measurement": "GI50", "setting": "PC-3 prostate", "value": 3.37, "unit": "µM"},
      {"measurement": "TGI", "setting": "PC-3 prostate", "value": "> 100", "unit": "µM"},
      {"measurement": "GI50", "setting": "DU-145 prostate", "value": 5.33, "unit": "µM"},
      {"measurement": "TGI", "setting": "DU-145 prostate", "value": "> 100", "unit": "µM"},
      {"measurement": "GI50", "setting": "SK-MEL-5 melanoma", "value": 3.16, "unit": "µM"},
      {"measurement": "TGI", "setting": "SK-MEL-5 melanoma", "value": "> 100", "unit": "µM"},
      {"measurement": "GI50", "setting": "MALME-3M melanoma", "value": 3.47, "unit": "µM"},
      {"measurement": "TGI", "setting": "MALME-3M melanoma", "value": "> 100", "unit": "µM"},
      {"measurement": "GI50", "setting": "U251 CNS", "value": 2.35, "unit": "µM"},
      {"measurement": "TGI", "setting": "U251 CNS", "value": "> 100", "unit": "µM"},
      {"measurement": "GI50", "setting": "MCF7 breast", "value": 2.36, "unit": "µM"},
      {"measurement": "TGI", "setting": "MCF7 breast", "value": "> 100", "unit": "µM"},
      {"measurement": "GI50", "setting": "SF-268 CNS", "value": 4.48, "unit": "µM"},
      {"measurement": "TGI", "setting": "SF-268 CNS", "value": "> 100", "unit": "µM"},
      {"measurement": "GI50", "setting": "OVCAR-4 ovarian", "value": 3.85, "unit": "µM"},
      {"measurement": "TGI", "setting": "OVCAR-4 ovarian", "value": "> 100", "unit": "µM"},
      {"measurement": "GI50", "setting": "HCC-2998 colon", "value": 3.67, "unit": "µM"},
      {"measurement": "TGI", "setting": "HCC-2998 colon", "value": "> 100", "unit": "µM"},
      {"measurement": "GI50", "setting": "SNB-75 CNS", "value": 2.12, "unit": "µM"},
      {"measurement": "TGI", "setting": "SNB-75 CNS", "value": "> 100", "unit": "µM"},
      {"measurement": "GI50", "setting": "CAKI-1 renal", "value": 3.81, "unit": "µM"},
      {"measurement": "TGI", "setting": "CAKI-1 renal", "value": "> 100", "unit": "µM"},
      {"measurement": "GI50", "setting": "T-47D breast", "value": 2.58, "unit": "µM"},
      {"measurement": "TGI", "setting": "T-47D breast", "value": "> 100", "unit": "µM"},
      {"measurement": "GI50", "setting": "EKVX NSCLC", "value": 2.69, "unit": "µM"},
      {"measurement": "TGI", "setting": "EKVX NSCLC", "value": "> 100", "unit": "µM"},
      {"measurement": "GI50", "setting": "NCI-H460 lung", "value": 3.13, "unit": "µM"},
      {"measurement": "TGI", "setting": "NCI-H460 lung", "value": "> 100", "unit": "µM"}
    ]}
  ]
}
